According to US20120135009A1, “Cleaved and Phosphorylated CRMP2 as Blood Marker of Inflammatory Diseases of the Central Nervous System” (priority 2009, published 2012):

System: Jurkat T-cells
Test: CRMP2 polarization in Jurkat cells adhering to collagen I-coated slides (immunofluorescence)
Assay type: cell-based
Procedure: The CRMP2 forms, Yes kinase and intermediary filament vimentin were detected by indirect immunofluorescence on Jurkat and primary T-cells adhered to collagen I-coated slides (20 μg/ml) and fixed following treatment (acetone −20° C.; 10 min). Cells were incubated with specific antibody (1 h, 37° C.) then with Alexa 488- or 546-conjugated anti-mouse or anti-rabbit or anti-sheep IgG antibodies (1 h, 37° C.) and examined using the Axioplan II fluorescence microscope (Carl Zeiss). Nuclear counter-staining was performed using a fluorescent DNA intercalant, 4′, 6′-diamidino-2-phenylindole (DAPI, Boehringer Mannheim).
To define a link between chemokines and CRMP2, the inventors first examined the localization of CRMP2 in Jurkat T-cells under CXCL12 signaling. They used two different anti-CRMP2 antibodies (anti-C-ter and anti-pep4) that recognize the full-length and cleaved products of CRMP2. […] This phenomenon of CRMP2 polarization was still observed after 30 minutes of treatment. […] In addition CRMP2 distribution to the uropod was concomitant with the re-localization of vimentin, which was quickly redistributed at the trailing edge of polarizing T-cells.

Row | Compound | decrease of CXCL12-induced CRMP2 re-localization (Jurkat cells treated with CXCL12 (100 ng/mL) in the presence of AMD3100) | increase of cells with polarized (asymmetrical) CRMP2 distribution (CXCL12 100 ng/mL, 2, 5 or 10 min, versus un-treated Jurkat T-cells)
1 | c1cc(CN2CCCNCCNCCCNCC2)ccc1CN1CCCNCCNCCCNCC1 [AMD3100] | 35% | 
2 | CXCL12: chemokine, stromal-derived-factor-1, ligand of the CXCR4 receptor |  | 1.6 to 2 fold
